Key:
Assay in all cases: Kinase screen
Format in all cases: biochemical
MPSK1 = MPSK1 (Homo sapiens, UniProt O75716)
Text: (§1) With verapamil used as a positive control.
(§2) V. Distribution coefficient (LogD7.4)

EPH-B2 = EPH-B2 (Homo sapiens, UniProt P29323)
Text: as §1, §2

Lck = Lck (Homo sapiens, UniProt P06239)
Text: as §1, §2

EF2K = EF2K (Homo sapiens, UniProt O00418)
Text: as §1, §2

MST3 = MST3 (Homo sapiens, UniProt Q9Y6E0)
Text: as §1, §2

ERK5 = ERK5 (Homo sapiens, UniProt Q13164)
Text: as §1, §2

S6K1 = S6K1 (Homo sapiens, UniProt P23443)
Text: as §1, §2

WNK1 = WNK1 (Homo sapiens, UniProt Q9H4A3)
Text: as §1, §2

PHK = PHK (Homo sapiens, UniProt Q16816)
Text: as §1, §2

IRAK4 = IRAK4 (Homo sapiens, UniProt Q9NWZ3)
Text: as §1, §2

LKB1 = LKB1 (Homo sapiens, UniProt Q15831)
Text: as §1, §2

BTK = BTK (Homo sapiens, UniProt Q06187)
Text: as §1, §2

PIM1 = PIM1 (Homo sapiens, UniProt P11309)
Text: as §1, §2

IRAK1 = IRAK1 (Homo sapiens, UniProt P51617)
Text: as §1, §2

Src = Src (Homo sapiens, UniProt P12931)
Text: as §1, §2

SRPK1 = SRPK1 (Homo sapiens, UniProt Q96SB4)
Text: as §1, §2

HIPK1 = HIPK1 (Homo sapiens, UniProt Q86Z02)
Text: as §1, §2

DAPK1 = DAPK1 (Homo sapiens, UniProt P53355)
Text: as §1, §2

MAP4K5 = MAP4K5 (Homo sapiens, UniProt Q9Y4K4)
Text: as §1, §2

TGFBR1 = TGFBR1 (Homo sapiens, UniProt P36897)
Text: as §1, §2

YES1 = YES1 (Homo sapiens, UniProt P07947)
Text: as §1, §2

TAK1 = TAK1 (Homo sapiens, UniProt O43318)
TAK1, sequence (O43318 1-303 limits assumed): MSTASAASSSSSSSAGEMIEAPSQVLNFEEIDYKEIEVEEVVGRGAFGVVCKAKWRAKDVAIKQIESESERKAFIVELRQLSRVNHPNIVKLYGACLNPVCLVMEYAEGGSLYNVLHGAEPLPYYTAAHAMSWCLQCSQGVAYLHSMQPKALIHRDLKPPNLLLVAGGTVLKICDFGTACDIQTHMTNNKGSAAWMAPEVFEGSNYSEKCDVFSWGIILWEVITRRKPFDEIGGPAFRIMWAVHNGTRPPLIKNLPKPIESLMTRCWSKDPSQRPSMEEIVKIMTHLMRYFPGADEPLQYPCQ
Text: as §1, §2

SmMLCK = SmMLCK (Homo sapiens, UniProt Q15746)
Text: as §1, §2

ZAP70 = ZAP70 (Homo sapiens, UniProt P43403)
Text: as §1, §2

ROCK 2 = ROCK 2 (Homo sapiens, UniProt O75116)
Text: as §1, §2

PLK1 = PLK1 (Homo sapiens, UniProt P53350)
Text: as §1, §2

NUAK1 = NUAK1 (Homo sapiens, UniProt O60285)
Text: as §1, §2

PRK2 = PRK2 (Homo sapiens, UniProt Q16513)
Text: as §1, §2

PKCγ = PKCγ (Homo sapiens, UniProt P05129)
Text: as §1, §2

MST4 = MST4 (Homo sapiens, UniProt Q9P289)
Text: as §1, §2

MEKK1 = MEKK1 (Homo sapiens, UniProt Q13233)
Text: as §1, §2

NEK2a = NEK2a (Homo sapiens, UniProt P51955)
Text: as §1, §2

PDGFRA = PDGFRA (Homo sapiens, UniProt P16234)
Text: as §1, §2

SYK = SYK (Homo sapiens, UniProt P43405)
Text: as §1, §2

SIK3 = SIK3 (Homo sapiens, UniProt Q9Y2K2)
Text: as §1, §2

MARK2 = MARK2 (Homo sapiens, UniProt Q7KZI7)
Text: as §1, §2

CK2 = CK2 (Homo sapiens, UniProt P68400)
Text: as §1, §2

PKCz = PKCz (Homo sapiens, UniProt Q05513)
Text: as §1, §2

ABL = ABL (Homo sapiens, UniProt P00519)
ABL, sequence (P00519 whole entry): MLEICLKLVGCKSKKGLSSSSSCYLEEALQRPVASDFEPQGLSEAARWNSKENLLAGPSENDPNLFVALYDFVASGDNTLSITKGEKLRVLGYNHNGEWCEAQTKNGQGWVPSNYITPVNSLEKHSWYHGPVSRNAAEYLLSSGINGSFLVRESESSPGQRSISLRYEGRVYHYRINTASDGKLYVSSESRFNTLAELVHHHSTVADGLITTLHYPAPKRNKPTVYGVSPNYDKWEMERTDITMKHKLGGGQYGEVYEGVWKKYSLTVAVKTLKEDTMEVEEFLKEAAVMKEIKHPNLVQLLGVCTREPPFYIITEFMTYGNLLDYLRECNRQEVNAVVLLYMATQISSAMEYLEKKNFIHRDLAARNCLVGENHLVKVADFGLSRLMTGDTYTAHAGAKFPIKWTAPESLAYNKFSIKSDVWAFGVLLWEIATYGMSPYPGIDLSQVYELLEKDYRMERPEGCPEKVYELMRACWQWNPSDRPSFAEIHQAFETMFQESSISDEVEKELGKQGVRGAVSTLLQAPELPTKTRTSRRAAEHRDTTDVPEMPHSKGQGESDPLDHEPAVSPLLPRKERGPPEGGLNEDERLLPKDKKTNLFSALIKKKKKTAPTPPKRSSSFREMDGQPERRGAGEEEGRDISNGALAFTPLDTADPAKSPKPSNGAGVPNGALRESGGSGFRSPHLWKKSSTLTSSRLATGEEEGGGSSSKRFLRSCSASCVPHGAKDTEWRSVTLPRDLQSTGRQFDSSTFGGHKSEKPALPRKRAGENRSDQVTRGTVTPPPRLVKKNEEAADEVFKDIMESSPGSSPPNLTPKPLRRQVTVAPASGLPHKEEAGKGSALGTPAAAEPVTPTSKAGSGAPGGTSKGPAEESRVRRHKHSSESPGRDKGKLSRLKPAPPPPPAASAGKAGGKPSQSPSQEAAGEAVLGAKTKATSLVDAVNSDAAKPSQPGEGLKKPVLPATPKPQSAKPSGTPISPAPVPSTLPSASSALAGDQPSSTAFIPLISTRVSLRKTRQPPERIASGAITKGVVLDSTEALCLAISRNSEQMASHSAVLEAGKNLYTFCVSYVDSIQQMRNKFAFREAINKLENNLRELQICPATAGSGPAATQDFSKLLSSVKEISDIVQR
Text: as §1, §2

RSK1 = RSK1 (Homo sapiens, UniProt Q15418)
RSK1, sequence (Q15418 whole entry): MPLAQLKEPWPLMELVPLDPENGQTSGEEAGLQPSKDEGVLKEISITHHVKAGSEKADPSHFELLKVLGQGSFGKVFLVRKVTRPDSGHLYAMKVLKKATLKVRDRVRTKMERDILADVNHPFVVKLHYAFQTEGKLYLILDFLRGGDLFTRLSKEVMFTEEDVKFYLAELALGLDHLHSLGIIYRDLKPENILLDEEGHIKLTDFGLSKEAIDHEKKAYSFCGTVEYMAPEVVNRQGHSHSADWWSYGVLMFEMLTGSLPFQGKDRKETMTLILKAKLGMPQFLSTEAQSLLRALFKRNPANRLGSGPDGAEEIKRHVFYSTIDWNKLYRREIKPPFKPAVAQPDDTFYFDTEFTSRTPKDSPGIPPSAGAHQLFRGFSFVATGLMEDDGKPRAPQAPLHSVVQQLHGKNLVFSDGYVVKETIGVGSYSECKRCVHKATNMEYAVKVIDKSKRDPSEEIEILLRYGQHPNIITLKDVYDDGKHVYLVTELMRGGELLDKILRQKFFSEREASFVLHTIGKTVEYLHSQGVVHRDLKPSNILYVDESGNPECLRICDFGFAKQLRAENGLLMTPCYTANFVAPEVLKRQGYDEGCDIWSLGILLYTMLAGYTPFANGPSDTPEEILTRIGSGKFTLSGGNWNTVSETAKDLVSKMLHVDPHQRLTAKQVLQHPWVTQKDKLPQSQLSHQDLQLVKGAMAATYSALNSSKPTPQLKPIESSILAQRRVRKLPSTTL
Text: as §1, §2

EPH-B1 = EPH-B1 (Homo sapiens, UniProt P54762)
Text: as §1, §2

HER4 = HER4 (Homo sapiens, UniProt Q15303)
Text: as §1, §2

ULK1 = ULK1 (Homo sapiens, UniProt O75385)
Text: as §1, §2

IKKb = IKKb (Homo sapiens, UniProt O14920)
Text: as §1, §2

GCK = GCK (Homo sapiens, UniProt Q12851)
GCK, sequence (Q12851 whole entry): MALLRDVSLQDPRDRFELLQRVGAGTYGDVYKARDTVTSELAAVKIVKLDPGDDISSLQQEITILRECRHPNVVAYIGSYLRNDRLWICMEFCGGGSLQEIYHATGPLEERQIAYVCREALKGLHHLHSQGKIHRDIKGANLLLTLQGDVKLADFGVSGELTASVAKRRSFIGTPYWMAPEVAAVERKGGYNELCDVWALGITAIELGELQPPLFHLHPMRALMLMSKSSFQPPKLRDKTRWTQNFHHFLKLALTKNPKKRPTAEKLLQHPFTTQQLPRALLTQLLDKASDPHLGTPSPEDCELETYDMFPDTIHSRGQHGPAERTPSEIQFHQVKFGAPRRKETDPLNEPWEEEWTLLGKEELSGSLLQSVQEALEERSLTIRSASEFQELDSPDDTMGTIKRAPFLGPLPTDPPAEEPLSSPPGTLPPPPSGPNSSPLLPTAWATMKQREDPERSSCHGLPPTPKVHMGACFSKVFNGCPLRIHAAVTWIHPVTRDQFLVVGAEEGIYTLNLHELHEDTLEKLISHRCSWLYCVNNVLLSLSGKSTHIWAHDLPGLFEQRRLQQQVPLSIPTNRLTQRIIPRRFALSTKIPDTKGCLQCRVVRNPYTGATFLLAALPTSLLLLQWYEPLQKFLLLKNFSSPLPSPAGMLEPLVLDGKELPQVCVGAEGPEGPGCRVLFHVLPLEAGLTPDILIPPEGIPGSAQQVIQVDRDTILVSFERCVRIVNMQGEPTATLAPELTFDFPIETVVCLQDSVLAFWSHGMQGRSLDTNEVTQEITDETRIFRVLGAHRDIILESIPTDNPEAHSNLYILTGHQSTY
Text: as §1, §2

OSR1 = OSR1 (Homo sapiens, UniProt O95747)
Text: as §1, §2

EPH-B2, sequence (P29323 19-1055): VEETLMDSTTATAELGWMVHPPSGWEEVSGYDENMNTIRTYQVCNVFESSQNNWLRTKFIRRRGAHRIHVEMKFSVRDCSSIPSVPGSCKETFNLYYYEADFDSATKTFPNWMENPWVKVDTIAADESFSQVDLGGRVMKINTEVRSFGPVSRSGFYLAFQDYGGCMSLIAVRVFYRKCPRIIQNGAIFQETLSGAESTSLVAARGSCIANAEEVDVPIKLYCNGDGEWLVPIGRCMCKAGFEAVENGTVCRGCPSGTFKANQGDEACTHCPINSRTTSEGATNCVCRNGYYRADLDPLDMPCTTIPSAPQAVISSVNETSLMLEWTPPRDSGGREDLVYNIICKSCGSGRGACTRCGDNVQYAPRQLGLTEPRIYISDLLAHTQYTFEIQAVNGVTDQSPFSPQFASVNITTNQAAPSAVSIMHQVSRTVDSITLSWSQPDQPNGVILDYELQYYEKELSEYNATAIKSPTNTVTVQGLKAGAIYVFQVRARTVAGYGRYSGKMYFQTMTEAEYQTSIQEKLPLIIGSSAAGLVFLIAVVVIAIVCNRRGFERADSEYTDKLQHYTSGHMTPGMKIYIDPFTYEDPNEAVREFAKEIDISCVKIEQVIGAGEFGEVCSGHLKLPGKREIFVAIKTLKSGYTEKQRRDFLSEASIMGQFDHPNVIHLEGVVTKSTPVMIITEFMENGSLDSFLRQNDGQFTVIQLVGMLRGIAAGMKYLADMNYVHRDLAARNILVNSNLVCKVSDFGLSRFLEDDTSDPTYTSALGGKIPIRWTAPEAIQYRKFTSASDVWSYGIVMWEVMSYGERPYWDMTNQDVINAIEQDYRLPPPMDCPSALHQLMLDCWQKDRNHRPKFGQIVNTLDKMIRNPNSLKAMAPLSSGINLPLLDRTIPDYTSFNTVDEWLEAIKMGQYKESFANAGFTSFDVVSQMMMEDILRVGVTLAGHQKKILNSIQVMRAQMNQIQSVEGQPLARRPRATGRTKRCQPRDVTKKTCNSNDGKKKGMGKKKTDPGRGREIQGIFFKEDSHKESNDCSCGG
EF2K, sequence (O00418 whole entry): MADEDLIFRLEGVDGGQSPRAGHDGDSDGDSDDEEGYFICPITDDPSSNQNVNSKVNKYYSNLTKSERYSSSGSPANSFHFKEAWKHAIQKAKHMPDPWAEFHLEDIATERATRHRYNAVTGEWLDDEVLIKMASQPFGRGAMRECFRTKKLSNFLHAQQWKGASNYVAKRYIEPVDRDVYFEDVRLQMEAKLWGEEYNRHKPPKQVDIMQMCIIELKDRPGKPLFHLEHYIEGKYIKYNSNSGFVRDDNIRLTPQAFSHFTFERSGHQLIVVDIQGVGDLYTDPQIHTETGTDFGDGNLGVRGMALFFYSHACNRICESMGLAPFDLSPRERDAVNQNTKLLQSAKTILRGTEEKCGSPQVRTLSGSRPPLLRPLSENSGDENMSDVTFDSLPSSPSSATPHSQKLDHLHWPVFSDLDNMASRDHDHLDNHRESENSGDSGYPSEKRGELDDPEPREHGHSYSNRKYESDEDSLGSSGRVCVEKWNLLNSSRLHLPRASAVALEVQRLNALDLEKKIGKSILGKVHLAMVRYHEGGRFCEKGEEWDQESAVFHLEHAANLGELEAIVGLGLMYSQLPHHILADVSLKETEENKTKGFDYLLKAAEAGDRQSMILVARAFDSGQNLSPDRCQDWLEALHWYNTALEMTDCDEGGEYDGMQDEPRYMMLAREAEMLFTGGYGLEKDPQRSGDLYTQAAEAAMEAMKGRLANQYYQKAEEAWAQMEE
MPSK1, sequence (O75716 whole entry): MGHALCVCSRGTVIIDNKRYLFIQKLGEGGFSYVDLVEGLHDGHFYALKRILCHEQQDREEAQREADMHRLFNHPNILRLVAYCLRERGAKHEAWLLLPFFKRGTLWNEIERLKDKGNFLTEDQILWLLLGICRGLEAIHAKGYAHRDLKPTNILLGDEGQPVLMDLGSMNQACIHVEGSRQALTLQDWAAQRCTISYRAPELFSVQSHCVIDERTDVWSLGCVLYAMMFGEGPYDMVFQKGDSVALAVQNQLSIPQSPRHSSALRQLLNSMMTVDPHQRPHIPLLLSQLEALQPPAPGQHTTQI

CCN(CC)Cc1ccc(OC)c(-c2cc3c(-c4ccc(C(=O)O)c(C(C)C)c4)ccnc3[nH]2)c1 [analogue 1, 4-(2-(5-((Diethylamino)methyl)-2-methoxyphenyl)-1H-pyrrolo[2,3-b]pyridin-4-yl)-2-isopropylbenzoic Acid]
activity at 1 µM (MPSK1): 104% | activity at 1 µM (EPH-B2): 100% | activity at 1 µM (Lck): 39% | activity at 1 µM (EF2K): 113% | activity at 1 µM (MST3): 62% | activity at 1 µM (ERK5): 54% | activity at 1 µM (S6K1): 87% | activity at 1 µM (WNK1): 105% | activity at 1 µM (PHK): 10% | activity at 1 µM (IRAK4): 24% | activity at 1 µM (LKB1): 115% | activity at 1 µM (BTK): 119% | activity at 1 µM (PIM1): 107% | activity at 1 µM (IRAK1): 6% | activity at 1 µM (Src): 42% | activity at 1 µM (SRPK1): 92% | activity at 1 µM (HIPK1): 83% | activity at 1 µM (DAPK1): 105% | activity at 1 µM (MAP4K5): 14% | activity at 1 µM (TGFBR1): 6% | activity at 1 µM (YES1): 67% | activity at 1 µM (TAK1): 25% | activity at 1 µM (SmMLCK): 80% | activity at 1 µM (ZAP70): 59% | activity at 1 µM (ROCK 2): 92% | activity at 1 µM (PLK1): 104% | activity at 1 µM (NUAK1): 18% | activity at 1 µM (PRK2): 48% | activity at 1 µM (PKCγ): 114% | activity at 1 µM (MST4): 59% | activity at 1 µM (MEKK1): 112% | activity at 1 µM (NEK2a): 87% | activity at 1 µM (PDGFRA): 133% | activity at 1 µM (SYK): 89% | activity at 1 µM (SIK3): 71% | activity at 1 µM (MARK2): 34% | activity at 1 µM (CK2): 90% | activity at 1 µM (PKCz): 121% | activity at 1 µM (ABL): 59% | activity at 1 µM (RSK1): 106% | activity at 1 µM (EPH-B1): 124% | activity at 1 µM (HER4): 112% | activity at 1 µM (ULK1): 80% | activity at 1 µM (IKKb): 144% | activity at 1 µM (GCK): 31% | activity at 1 µM (OSR1): 38%
